{"source": "patent US20130136809A1", "about": "“7-HYRDROXYFRULLANOLIDE ITS ANALOGS FOR PREVENTION CONTROL AND TREATMENT OF METABOLIC DISORDERS” (LAILA NUTRACEUTICALS, priority 2009, published 2013)", "key": {"[1]": {"tested_on": "3T3-L1 pre-adipocyte cells", "experiment": "Inhibition of lipid accumulation in differentiated adipocytes (Oil Red O)", "type": "cell-based, mouse", "conditions": "Homo sapiens, 3T3-L1 adipocytes", "method": "One hundred thousand 3T3-L1 […] pre-adipocyte cells in Dulbecco's Modified Eagles Medium (DMEM) containing 10% Fetal Bovine Serum (FBS) were taken into each well of a 24-well plate and incubated for 48 h at 37° C. and 5% CO2. The differentiation of pre-adipocyte cells was initiated in a differentiation medium containing 10 μg/ml insulin, 1.0 μM dexamethasone, and 0.5 mM isobutylmethylxanthine (IBMX) for 48 h. After this the medium was replaced by DMEM containing 10 ug/ml insulin and incubated for 3 days. Then the differentiating cells were treated with […] of 7-hydroxyfrullanolide (1) or different natural analogs (structure numbers 3 to 11) or semi-synthetic analogs (structure numbers 12 to 25) of 7-HF. The cells were maintained in the medium for another 3-5 days. The cells incubated with 0.1% DMSO were considered as the vehicle control. After the incubation period, cells were washed with phosphate buffered saline (PBS) and fixed with 10% buffered formalin for 1 h at room temperature. One small aliquot of cell suspension was separated for cell counting in hemocytometer chamber. Fixed cells were stained with Oil Red O solution to measure the cellular neutral lipid accumulation. Briefly, cells were washed with PBS, fixed with 10% buffered formalin and stained with Oil Red O solution (0.5 g in 100 ml isopropanol) for […]. After removing the staining solution, the dye retained in the cells will be eluted into isopropanol and OD measured at 550 nm. The inhibition of fat accumulation in the treated cells was compared with the mock treated differentiated adipocytes. The treated and control cells were also analyzed and compared for inhibition of lipid accumulation visually under microscope and recorded digitally in suitable image capture system. The anti-adipogenic activity by 7-HF is depicted in Figure I and the percentage inhibition of lipid accumulation shown by 7-HF and its natural and semi-synthetic analogs is summarized in Table-1."}, "[2]": {"tested_on": "adiponectin", "experiment": "Western immunoblot of adiponectin in 3T3-L1 adipocytes", "type": "cell-based, mouse", "conditions": "1 μg/ml; 3T3-L1 mature adipocytes", "method": "(§1) Experimental protocol: Mouse pre-adipocyte 3T3-L1 cells are maintained in Dulbecco's Modified Eagles Medium (DMEM) supplemented with 2 mM glutamine, 4.5 g/L glucose and 10% fetal bovine serum. Equal number of cells was plated in each well of 24-well culture plates. Cells were pre-treated separately with 1 μg/mL 7-hydroxyfrullanolide for 2 h and followed by addition of differentiation medium containing 500 nM insulin, 1.0 μM dexamethasone, and 0.5 mM isobutylmethylxanthine (IBMX) for 48 h. Thereafter, cells were further incubated with post differentiation medium (DMEM containing 100 nM insulin) in presence or absence of 7-HF. […] Protein content was measured in Bradford method by using Coomassie blue dye and cell lysates were stored in aliquots at −80° C. until further use. The modulation of adipocyte differentiation markers such as Peroxisome proliferator-activated receptor gamma (PPARγ), CD36, adipocyte fatty acid binding protein (aP2); and intracellular lipid droplet surface associated protein, perilipin expression were evaluated by immunoblot assay.\nInhibition of protein expression of biomarker molecules adipocytes in presence or absence of 7-hydroxyfrullanolide (7-HF) was evaluated in immunoblot assay. […] Band intensities were calculated densitometrically and normalized with expression of actin in respective samples. […]"}, "[3]": {"tested_on": "PPARγ", "experiment": "Immunoblot of PPARγ expression in 3T3-L1 adipocytes", "type": "cell-based, mouse", "conditions": "1 ug/ml; normalized with actin", "method": "as §1\n(§2) Inhibition of protein expression of biomarker molecules adipocytes in presence or absence of 7-hydroxyfrullanolide (7-HF) was evaluated in immunoblot assay. […] Band intensities were calculated densitometrically and normalized with expression of actin in respective samples."}, "[4]": {"tested_on": "J774 mouse macrophage cells", "experiment": "Lipid accumulation in high glucose induced macrophage cells (in vitro model of atherosclerosis)", "type": "cell-based", "conditions": "1 μg/ml; 600 mg/dL glucose, 5 days", "method": "Experimental protocol: This was evaluated in glucose induced J774, mouse macrophage cells. Briefly, the cells were cultured in DMEM with 2 mM Glutamine, 100 U/mL penicillin, […] streptomycin and 10% fetal bovine serum (Hyclone, Logan, Utah). Equal number of cells was seeded into 35 mm petri dishes (Corning, USA) one day before the experiment. The culture media was replaced with fresh, glucose free DMEM supplemented with 10% fetal bovine serum. 7-HF was diluted at […] and all cultures were pre-incubated for 2 hours at 5% CO2 at 37° C., and then incubated with 600 mg/dL of glucose for 5 days. Representative photomicrographs showing inhibition of lipid accumulation by 7-HF in high glucose induced macrophage cells of an in vitro model of atherosclerosis are shown in Figure IV. The control culture was supplemented with 100 mg/dL glucose. The cells were harvested and lysed with lysis buffer. Cell lysates were clarified at 14,000 g. Protein concentration was measured by Bradford method."}, "[5]": {"tested_on": "aP2", "experiment": "Immunoblot of aP2 expression in 3T3-L1 adipocytes", "type": "cell-based, mouse", "conditions": "1 ug/ml; normalized with actin", "method": "as §1, §2"}, "[6]": {"tested_on": "ADRP", "experiment": "Immunoblot of ADRP expression in 3T3-L1 adipocytes", "type": "cell-based, mouse", "conditions": "1 ug/ml; normalized with actin", "method": "as §1, §2"}, "[7]": {"tested_on": "PTP-1B", "experiment": "PTP-1B activity in 3T3-L1 cell lysates (pNPP hydrolysis)", "type": "cell-based, mouse", "conditions": "1.0 or 2.5 μg/ml; 48 h", "method": "Equal number of 3T3-L1 mouse preadipocytes was seeded into cell culture dishes. After 24 h, the cells were treated either with different concentrations of 7-HF or […] Sodium vanadate ([…]) for further 48 h. Thereafter, the washed cells were lysed with cell lysis buffer and the clarified at 14,000 g for 10 min at 4° C. The protein concentrations were calculated by Bradford method and the cell lysates were reacted with equal volume of substrate reagent containing 10 mM p-nitrophenyl phosphate (pNPP). After 1 h incubation at 37° C., the reaction was stopped with 1N NaOH and the developed color was read at 405 nm. The specific enzyme activity was calculated by using an extinction coefficient of 1.78×10^4 M^−1cm^−1 for pNPP at A405. The inhibition shown by 7-HF is depicted in Figure VII."}, "[8]": {"tested_on": "CD36", "experiment": "Immunoblot of CD36 expression in 3T3-L1 adipocytes", "type": "cell-based, mouse", "conditions": "1 ug/ml; normalized with actin", "method": "as §1, §2"}, "[9]": {"tested_on": "perilipin", "experiment": "Immunoblot of perilipin expression in 3T3-L1 adipocytes", "type": "cell-based, mouse", "conditions": "1 ug/ml; normalized with actin", "method": "as §1, §2"}}, "data": [{"smiles": "C=C1C(=O)O[C@H]2C3=C(C)CCC[C@]3(C)CC[C@@]12O", "note": "[7-HF (1), 7-hydroxyfrullanolide]", "values": [{"measurement": "inhibition at 1 µg/mL", "setting": "[1]; 1.0 μg/mL", "result": 52.5, "unit": "%"}, {"measurement": "inhibition at 2.5 µg/mL", "setting": "[1]; 2.5 μg/mL", "result": 63.5, "unit": "%"}, {"measurement": "adiponectin protein expression", "setting": "[2]", "result": "potent upregulation"}, {"measurement": "PPARγ protein expression", "setting": "[3]", "result": "down-regulation"}, {"measurement": "lipid accumulation in high glucose induced macrophage cells", "setting": "[4]", "result": "inhibited lipid accumulation"}, {"measurement": "aP2 protein expression", "setting": "[5]", "result": "down-regulation"}, {"measurement": "ADRP protein expression", "setting": "[6]", "result": "down-regulation"}, {"measurement": "PTP-1B activity", "setting": "[7]", "result": "significant inhibition"}, {"measurement": "CD36 protein expression", "setting": "[8]", "result": "down-regulation"}, {"measurement": "perilipin protein expression", "setting": "[9]", "result": "down-regulation"}]}]}
